ChEMBL document CHEMBL1201862, “PubChem BioAssay data set” (2004)
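Tested at 5 concentrations; 48 h exposure; 96-well plates; endpoints linearly interpolated, else capped at highest concentration. GI50 marks 50% less growth.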 Activity calls are given as the source filed them. Cut-off read from the data, not from the text of the source: active = GI50 up to about 1.1 µM and inactive = higher.

Assays:
Test in all cases: NCI anticancer screen, dose series, 48 h
SK-MEL-2 = tested on: SK-MEL-2
OVCAR-8 = tested on: OVCAR-8
HCT-15 = tested on: HCT-15
RPMI-8226 = tested on: RPMI-8226
T47D = tested on: T47D
UO-31 = tested on: UO-31
Hs-578T = tested on: Hs-578T
TK-10 = tested on: TK-10
MOLT-4 = tested on: MOLT-4
MDA-MB-435 = tested on: MDA-MB-435
SNB-19 = tested on: SNB-19
RXF 393 = tested on: RXF 393
M14 = tested on: M14
SF-295 = tested on: SF-295
HCT-116 = tested on: HCT-116
NCI-H460 = tested on: NCI-H460
EKVX = tested on: EKVX
HCC 2998 = tested on: HCC 2998
IGROV-1 = tested on: IGROV-1
A498 = tested on: A498

Compound: O=[N+]([O-])c1ccc(/C=N\N=c2/ccc([N+](=O)[O-])c[nH]2)cc1
- GI50 (SK-MEL-2): > 100 µM (inactive)
- GI50 (OVCAR-8): > 100 µM (inactive)
- GI50 (HCT-15): > 100 µM
- GI50 (RPMI-8226): > 100 µM (inactive)
- GI50 (T47D): > 100 µM (inactive)
- GI50 (UO-31): > 100 µM (inactive)
- GI50 (Hs-578T): > 100 µM (inactive)
- GI50 (TK-10): > 100 µM (inactive)
- GI50 (MOLT-4): > 100 µM (inactive)
- GI50 (MDA-MB-435): > 100 µM (inactive)
- GI50 (SNB-19): > 100 µM (inactive)
- GI50 (RXF 393): > 100 µM (inactive)
- GI50 (M14): > 100 µM (inactive)
- GI50 (SF-295): > 100 µM (inactive)
- GI50 (HCT-116): > 100 µM (inactive)
- GI50 (NCI-H460): > 100 µM (inactive)
- GI50 (EKVX): > 100 µM (inactive)
- GI50 (HCC 2998): > 100 µM (inactive)
- GI50 (IGROV-1): > 100 µM (inactive)

Compound: CCC(C)C(=O)OC1C(=O)OC2CC3C(C)=CC(=O)C(O)C3(C)C3C4(O)OCC23C1C(C)C4O (stereo not drawn)
- GI50 (SK-MEL-2): < 0.0292 µM (active)
- GI50 (OVCAR-8): < 0.01 µM (active)
- GI50 (HCT-15): < 0.0185 µM
- GI50 (RPMI-8226): < 0.0111 µM (active)
- GI50 (T47D): < 0.0166 µM (active)
- GI50 (UO-31): 0.0324 µM (active)
- GI50 (Hs-578T): < 0.0202 µM (active)
- GI50 (A498): 0.514 µM (active)
- GI50 (TK-10): < 0.0188 µM (active)
- GI50 (MDA-MB-435): < 0.0124 µM (active)
- GI50 (SNB-19): < 0.0152 µM (active)
- GI50 (M14): < 0.0146 µM (active)
- GI50 (SF-295): < 0.0204 µM (active)
- GI50 (HCT-116): < 0.01 µM (active)
- GI50 (NCI-H460): < 0.014 µM (active)
- GI50 (EKVX): 0.264 µM (active)
- GI50 (HCC 2998): < 0.0262 µM (active)
- GI50 (IGROV-1): < 0.01 µM (active)

Compound: O=C(c1ccco1)N(C(=O)N1CCC(c2ccccc2)CC1)c1ccccc1
- GI50 (SK-MEL-2): 42.5 µM (inactive)
- GI50 (OVCAR-8): 40.7 µM (inactive)
- GI50 (HCT-15): 42 µM
- GI50 (RPMI-8226): 17.4 µM (inactive)
- GI50 (T47D): 21.4 µM (inactive)
- GI50 (UO-31): 24.4 µM (inactive)
- GI50 (Hs-578T): 60.4 µM (inactive)
- GI50 (A498): 94.8 µM (inactive)
- GI50 (TK-10): 55.3 µM (inactive)
- GI50 (MOLT-4): 17.7 µM (inactive)
- GI50 (MDA-MB-435): 35 µM (inactive)
- GI50 (SNB-19): > 100 µM (inactive)
- GI50 (RXF 393): 34 µM (inactive)
- GI50 (M14): 41.4 µM (inactive)
- GI50 (HCT-116): 42.7 µM (inactive)
- GI50 (EKVX): 20.2 µM (inactive)
- GI50 (IGROV-1): 25.9 µM (inactive)

Compound: COc1ccc(-c2cc(-c3ccncc3)nc(N)c2-c2ccc(F)cc2)cc1
- GI50 (SK-MEL-2): 36 µM (inactive)
- GI50 (OVCAR-8): 41.3 µM (inactive)
- GI50 (HCT-15): 8.91 µM
- GI50 (RPMI-8226): > 100 µM (inactive)
- GI50 (T47D): 80.9 µM (inactive)
- GI50 (UO-31): 17.3 µM (inactive)
- GI50 (Hs-578T): > 100 µM (inactive)
- GI50 (A498): 46.3 µM (inactive)
- GI50 (TK-10): 35.2 µM (inactive)
- GI50 (MOLT-4): 73.3 µM (inactive)
- GI50 (MDA-MB-435): 21.2 µM (inactive)
- GI50 (SNB-19): 41.5 µM (inactive)
- GI50 (RXF 393): 15 µM (inactive)
- GI50 (M14): 42 µM (inactive)
- GI50 (SF-295): 80.9 µM (inactive)
- GI50 (HCT-116): 11.9 µM (inactive)
- GI50 (NCI-H460): 15.5 µM (inactive)
- GI50 (EKVX): > 100 µM (inactive)
- GI50 (IGROV-1): 10.6 µM (inactive)
